According to US9284333B2, “Fused pyrroledicarboxamides and their use as pharmaceuticals” (SANOFI, priority 2012, dated 2016):

Each molecule was assayed against Human TASK-1 channels (Homo sapiens (Human), UniProt O14649) (assay: Determination of the activity on the TASK-1 channel in Xenopus oocytes (two-microelectrode voltage clamp)). Conditions: compound concentration 5 μM.
Type: cell-based
Experimental: Determination of the activity on the TASK-1 channel in Xenopus oocytes
Human TASK-1 channels were expressed in Xenopus oocytes. For this purpose, oocytes were isolated from Xenopus laevis and defoliculated. Subsequently, TASK-1-encoding RNA synthesized in vitro was injected into the oocytes. After two days of TASK-1 protein expression, TASK-1 currents were measured by two-microelectrode voltage clamp. Data were acquired and analyzed using a TEC-10cx amplifier (NPI Electronic, Tamm, Germany) connected to an ITC-16 interface (Instrutech Corp., Long Island, USA) and Pulse software (HEKA Elektronik, Lambrecht, Germany). Oocytes were clamped to −90 mV and TASK-1 mediated currents were measured during 500 ms voltage pulses to 40 mV. Oocytes were continuously superfused with ND96 buffer containing 96 mM sodium chloride, 2 mM potassium chloride, 1.8 mM calcium chloride, 1 mM magnesium chloride, 5 mM 4-(2-hydroxyethyl)-piperazine-1-ethanesulfonic acid (HEPES; pH adjusted to 7.4 with sodium hydroxide). All experiments were performed at room temperature. Test compounds were consecutively added to the bath solution at rising concentrations. Compound effects were calculated as the percentage inhibition of TASK-1 control current before compound addition. IC50 values were obtained by fitting the data to the general dose-response equation.

Chain of Human TASK-1 channels (O14649 whole entry): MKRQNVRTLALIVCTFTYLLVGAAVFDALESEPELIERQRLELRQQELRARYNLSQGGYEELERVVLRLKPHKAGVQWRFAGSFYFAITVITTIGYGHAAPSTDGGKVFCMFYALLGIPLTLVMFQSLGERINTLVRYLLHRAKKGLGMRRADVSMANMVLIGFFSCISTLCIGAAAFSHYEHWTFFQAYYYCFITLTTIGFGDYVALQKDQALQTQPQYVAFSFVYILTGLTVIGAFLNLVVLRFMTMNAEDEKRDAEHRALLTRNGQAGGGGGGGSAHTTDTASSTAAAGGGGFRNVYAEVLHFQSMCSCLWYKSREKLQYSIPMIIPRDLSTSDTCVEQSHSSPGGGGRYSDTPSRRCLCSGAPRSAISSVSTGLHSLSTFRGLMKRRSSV

With CC[C@@H](NC(=O)c1cc(C(=O)N2CC[C@@H](C#N)C2)n2c1COCC2)c1ccccc1 [16fy, 6-((R)-3-Cyano-pyrrolidine-1-carbonyl)-3,4-dihydro-1H-pyrrolo[2,1-c][1,4]oxazine-8-carboxylic acid ((R)-1-phenyl-propyl)-amide] the inhibition at 5 µM was 59%.

Same assay, conditions: human TASK-1 expressed in Xenopus oocytes, room temperature; read-out: IC50 value for TASK-1 inhibition

Compared with CC[C@@H](NC(=O)c1cc(C(=O)N2CC[C@H](OC)C2)n2c1COCC2)c1ccc(F)cc1Cl [16nn, 6-((S)-3-Methoxy-pyrrolidine-1-carbonyl)-3,4-dihydro-1H-pyrrolo[2,1-c][1,4]oxazine-8-carboxylic acid [(R)-1-(2-chloro-4-fluoro-phenyl)-propyl]-amide], CC[C@@H](NC(=O)c1cc(C(=O)N2CC[C@H](F)C2)n2c1COCC2)c1ccccc1 [16fn, 6-((S)-3-Fluoro-pyrrolidine-1-carbonyl)-3,4-dihydro-1H-pyrrolo[2,1-c][1,4]oxazine-8-carboxylic acid ((R)-1-phenyl-propyl)-amide] is 1.7-fold lower in IC50: 270 nM for the first, 160 nM for the second. The second is the more potent here.

Compared with CC[C@@H](NC(=O)c1cc(C(=O)N(C)Cc2ncccn2)n2c1COCC2)c1ccccc1 [16jc, 3,4-Dihydro-1H-pyrrolo[2,1-c][1,4]oxazine-6,8-dicarboxylic acid 6-(methyl-pyrimidin-2-ylmethyl-amide) 8-[((R)-1-phenyl-propyl)-amide]], CC[C@@H](NC(=O)c1cc(C(=O)NC(C)c2ncccn2)c2n1CCOC2)c1ccccc1 (mixture of isomers) [16jz, 3,4-Dihydro-1H-pyrrolo[2,1-c][1,4]oxazine-6,8-dicarboxylic acid 6-[((R)-1-phenyl-propyl)-amide] 8-[(1-pyrimidin-2-yl-ethyl)-amide]] is 9-fold lower in IC50: 2700 nM for the first, 300 nM for the second. The second is the more potent here.

Compared with CC[C@@H](NC(=O)c1cc(C(=O)N2CCCC2C(C)C)n2c1COCC2)c1ccccc1 (stereo partly drawn) [16el, 6-(2-Isopropyl-pyrrolidine-1-carbonyl)-3,4-dihydro-1H-pyrrolo[2,1-c][1,4]oxazine-8-carboxylic acid ((R)-1-phenyl-propyl)-amide], CC[C@@H](NC(=O)c1cc(C(=O)N2CCCC2C(C)(C)C)n2c1COCC2)c1ccccc1 (stereo partly drawn) [16ex, 6-(2-tert-Butyl-pyrrolidine-1-carbonyl)-3,4-dihydro-1H-pyrrolo[2,1-c][1,4]oxazine-8-carboxylic acid ((R)-1-phenyl-propyl)-amide] is 2.1-fold lower in IC50: 380 nM for the first, 180 nM for the second. The second is the more potent here.

First: CC[C@@H](NC(=O)c1cc(C(=O)N(C)[C@@H](C)C(=O)OC(C)C)n2c1COCC2)c1ccccc1 [16ja, (S)-2-{Methyl-[8-((R)-1-phenyl-propylcarbamoyl)-3,4-dihydro-1H-pyrrolo[2,1-c][1,4]oxazine-6-carbonyl]-amino}-propionic acid isopropyl ester]
Second: CC[C@@H](NC(=O)c1cc(C(=O)N(CC)Cc2nnn(C)n2)n2c1COCC2)c1ccccc1 [16rp, 3,4-Dihydro-1H-pyrrolo[2,1-c][1,4]oxazine-6,8-dicarboxylic acid 6-[ethyl-(2-methyl-2H-tetrazol-5-ylmethyl)-amide] 8-[((R)-1-phenyl-propyl)-amide]]
The IC50 of the first is 4.5-fold lower: 100 nM for the first, 450 nM for the second.

First: CC[C@@H](NC(=O)c1cc(C(=O)NC(C2CC2)C2CC2)n2c1COCC2)c1ccccc1 [16hb, 3,4-Dihydro-1H-pyrrolo[2,1-c][1,4]oxazine-6,8-dicarboxylic acid 6-dicyclopropylmethyl-amide 8-[((R)-1-phenyl-propyl)-amide]]
Second: CC[C@@H](NC(=O)c1cc(C(=O)N[C@H](CC)c2ccc(C#N)nc2)n2c1COCC2)c1ccccc1 [16ib, 3,4-Dihydro-1H-pyrrolo[2,1-c][1,4]oxazine-6,8-dicarboxylic acid 6-{[(R)-1-(6-cyano-pyridin-3-yl)-propyl]-amide} 8-[((R)-1-phenyl-propyl)-amide]]
The IC50 of the first is 77-fold lower: 13 nM for the first, 1000 nM for the second. The first is the more potent here.

CC[C@@H](NC(=O)c1cc(C(=O)N2CCCC2c2c(C)noc2C)n2c1COCC2)c1ccccc1 (stereo partly drawn) [16er, 6-[2-(3,5-Dimethyl-isoxazol-4-yl)-pyrrolidine-1-carbonyl]-3,4-dihydro-1H-pyrrolo[2,1-c][1,4]oxazine-8-carboxylic acid ((R)-1-phenyl-propyl)-amide] was tested, and the IC50 was 320 nM.
